In one test the test system is RD. Description: Cytotoxicity against human RD cells incubated for 96 hrs by DIMSCAN method. The test is classed as functional, cell-based.
In test [1] the target is von Hippel-Lindau disease tumor suppressor/Focal adhesion kinase 1 (Homo sapiens) (UniProt Q05397+P40337). The experiment in a line: Induction of VHL-mediated FAK degradation in human PC3 cells at 10 to 10000 nM incubated for 24 hrs by Western blot analysis relative to control. It counts as cell-based. As to conditions: PC-3, dose 10-10000 nM.
The subject of a further test is MDA-MB-231. Description: Antiproliferative activity against human MDA-MB-231 cells incubated for 72 hrs by MTT assay. It counts as functional, cell-based. As to conditions: MDA-MB-231, 72 h.
The next test deals with BT-474. The experiment in a line: Antiproliferative activity against human BT-474 cells incubated for 72 hrs by MTT assay. To be noted: BT-474, 72 h. The test is classed as functional, cell-based.
The next test deals with MCF7. The experiment in a line: Antiproliferative activity against human MCF7 cells incubated for 72 hrs by MTT assay. It counts as functional, cell-based. As to conditions: MCF7, 72 h.
For the next test, the system named is T47D. The experiment in a line: Antiproliferative activity against human T-47D cells incubated for 72 hrs by MTT assay. It counts as functional, cell-based.
Test [2] addresses T1, Focal adhesion kinase 1 (Homo sapiens, UniProt Q05397).
Description: Inhibition of FAK (unknown origin) (410 to 689 residues) assessed as reduction in poly(Glu-Tyr) phosphorylation using poly (Glu,Tyr) as substrate by ELISA-based assay
The target of test [3] is Protein-tyrosine kinase 2-beta (Homo sapiens, UniProt Q14289). Description: Inhibition of pyk2 (unknown origin).
A further test relates to OVCAR-3. Description: Cytotoxicity against human OVCAR-3 cells in presence of metformin and carboplatin relative to control. It counts as functional.
Test [4] concerns the target T1, Focal adhesion kinase 1. The experiment in a line: Inhibition of FAK in human A549 cells assessed as reduction in phosphorylation at Y397 residue incubated for 30 mins by Western blot analysis. Background: Immunoblotting shows a protein as a band on a membrane.
Test [5] deals with T1, Focal adhesion kinase 1. The experiment in a line: Inhibition of FAK in human OVCAR8 cells assessed as reduction in phosphorylation at Y397 residue incubated for 30 mins by Western blot analysis.
Test [6] addresses T1, Focal adhesion kinase 1. Description: Inhibition of FAK in human U87MG cells assessed as reduction in phosphorylation at Y397 residue incubated for 30 mins by Western blot analysis.

SMILES strings stand for the structures.

T1 sequence (Q05397 whole entry): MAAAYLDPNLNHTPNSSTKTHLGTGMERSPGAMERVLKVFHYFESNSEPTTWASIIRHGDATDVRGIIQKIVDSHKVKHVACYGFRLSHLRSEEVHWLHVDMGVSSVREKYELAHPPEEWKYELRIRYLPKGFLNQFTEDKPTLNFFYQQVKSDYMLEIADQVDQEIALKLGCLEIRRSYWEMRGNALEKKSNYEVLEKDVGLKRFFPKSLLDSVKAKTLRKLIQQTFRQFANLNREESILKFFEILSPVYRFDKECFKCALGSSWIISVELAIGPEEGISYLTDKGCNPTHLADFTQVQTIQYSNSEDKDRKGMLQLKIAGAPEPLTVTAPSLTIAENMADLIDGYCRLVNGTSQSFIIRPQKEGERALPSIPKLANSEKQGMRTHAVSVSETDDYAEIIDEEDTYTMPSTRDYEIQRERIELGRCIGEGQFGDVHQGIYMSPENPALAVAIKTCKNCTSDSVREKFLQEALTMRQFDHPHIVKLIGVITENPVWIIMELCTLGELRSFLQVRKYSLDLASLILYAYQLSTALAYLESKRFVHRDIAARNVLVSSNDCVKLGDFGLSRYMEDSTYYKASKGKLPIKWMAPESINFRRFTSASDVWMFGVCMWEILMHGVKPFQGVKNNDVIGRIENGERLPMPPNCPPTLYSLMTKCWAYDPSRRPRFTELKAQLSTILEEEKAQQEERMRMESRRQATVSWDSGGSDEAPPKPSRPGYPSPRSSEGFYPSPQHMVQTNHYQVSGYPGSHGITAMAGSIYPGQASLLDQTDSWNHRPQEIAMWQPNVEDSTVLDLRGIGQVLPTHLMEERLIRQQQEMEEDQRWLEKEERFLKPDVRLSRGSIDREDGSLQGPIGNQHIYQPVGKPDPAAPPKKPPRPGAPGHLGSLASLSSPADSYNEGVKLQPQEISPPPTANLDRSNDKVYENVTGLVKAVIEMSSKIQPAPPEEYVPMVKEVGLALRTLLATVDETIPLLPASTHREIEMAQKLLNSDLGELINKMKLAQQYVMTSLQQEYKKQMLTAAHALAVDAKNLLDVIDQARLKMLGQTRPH
Protein-tyrosine kinase 2-beta, sequence (Q14289 whole entry): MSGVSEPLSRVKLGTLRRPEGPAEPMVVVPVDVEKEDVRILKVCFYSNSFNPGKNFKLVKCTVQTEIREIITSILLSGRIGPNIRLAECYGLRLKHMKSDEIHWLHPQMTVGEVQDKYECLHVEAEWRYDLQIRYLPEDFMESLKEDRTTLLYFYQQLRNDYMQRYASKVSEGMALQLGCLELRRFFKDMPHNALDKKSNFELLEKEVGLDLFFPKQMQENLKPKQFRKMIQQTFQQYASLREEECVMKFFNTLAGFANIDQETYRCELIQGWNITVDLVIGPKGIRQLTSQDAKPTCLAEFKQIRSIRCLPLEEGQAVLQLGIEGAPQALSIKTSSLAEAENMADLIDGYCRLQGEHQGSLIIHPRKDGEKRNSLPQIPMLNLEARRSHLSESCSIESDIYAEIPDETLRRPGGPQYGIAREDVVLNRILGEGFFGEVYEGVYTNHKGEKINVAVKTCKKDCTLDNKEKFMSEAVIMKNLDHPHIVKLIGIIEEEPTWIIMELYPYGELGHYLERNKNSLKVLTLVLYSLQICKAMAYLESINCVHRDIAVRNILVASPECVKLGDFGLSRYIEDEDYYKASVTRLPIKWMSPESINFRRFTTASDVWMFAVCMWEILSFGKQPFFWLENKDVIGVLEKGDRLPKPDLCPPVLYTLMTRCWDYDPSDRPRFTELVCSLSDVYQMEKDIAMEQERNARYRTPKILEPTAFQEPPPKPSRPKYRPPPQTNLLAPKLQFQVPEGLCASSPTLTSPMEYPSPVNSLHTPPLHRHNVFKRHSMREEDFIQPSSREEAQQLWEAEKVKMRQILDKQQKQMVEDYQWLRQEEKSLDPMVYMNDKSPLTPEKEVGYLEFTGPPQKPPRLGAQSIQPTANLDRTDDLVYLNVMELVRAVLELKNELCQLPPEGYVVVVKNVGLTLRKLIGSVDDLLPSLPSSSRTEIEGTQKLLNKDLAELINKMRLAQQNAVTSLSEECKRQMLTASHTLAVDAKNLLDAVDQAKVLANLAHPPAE
von Hippel-Lindau disease tumor suppressor/Focal adhesion kinase 1 (Homo sapiens), sequence (P40337 whole entry partner): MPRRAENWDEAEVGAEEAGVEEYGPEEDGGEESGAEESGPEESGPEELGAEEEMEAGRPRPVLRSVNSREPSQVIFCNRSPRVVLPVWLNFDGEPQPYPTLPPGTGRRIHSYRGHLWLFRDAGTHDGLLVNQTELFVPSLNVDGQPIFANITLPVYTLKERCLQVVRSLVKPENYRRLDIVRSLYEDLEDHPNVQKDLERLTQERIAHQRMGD
von Hippel-Lindau disease tumor suppressor/Focal adhesion kinase 1 (Homo sapiens), sequence (Q05397 2-1052 limits assumed): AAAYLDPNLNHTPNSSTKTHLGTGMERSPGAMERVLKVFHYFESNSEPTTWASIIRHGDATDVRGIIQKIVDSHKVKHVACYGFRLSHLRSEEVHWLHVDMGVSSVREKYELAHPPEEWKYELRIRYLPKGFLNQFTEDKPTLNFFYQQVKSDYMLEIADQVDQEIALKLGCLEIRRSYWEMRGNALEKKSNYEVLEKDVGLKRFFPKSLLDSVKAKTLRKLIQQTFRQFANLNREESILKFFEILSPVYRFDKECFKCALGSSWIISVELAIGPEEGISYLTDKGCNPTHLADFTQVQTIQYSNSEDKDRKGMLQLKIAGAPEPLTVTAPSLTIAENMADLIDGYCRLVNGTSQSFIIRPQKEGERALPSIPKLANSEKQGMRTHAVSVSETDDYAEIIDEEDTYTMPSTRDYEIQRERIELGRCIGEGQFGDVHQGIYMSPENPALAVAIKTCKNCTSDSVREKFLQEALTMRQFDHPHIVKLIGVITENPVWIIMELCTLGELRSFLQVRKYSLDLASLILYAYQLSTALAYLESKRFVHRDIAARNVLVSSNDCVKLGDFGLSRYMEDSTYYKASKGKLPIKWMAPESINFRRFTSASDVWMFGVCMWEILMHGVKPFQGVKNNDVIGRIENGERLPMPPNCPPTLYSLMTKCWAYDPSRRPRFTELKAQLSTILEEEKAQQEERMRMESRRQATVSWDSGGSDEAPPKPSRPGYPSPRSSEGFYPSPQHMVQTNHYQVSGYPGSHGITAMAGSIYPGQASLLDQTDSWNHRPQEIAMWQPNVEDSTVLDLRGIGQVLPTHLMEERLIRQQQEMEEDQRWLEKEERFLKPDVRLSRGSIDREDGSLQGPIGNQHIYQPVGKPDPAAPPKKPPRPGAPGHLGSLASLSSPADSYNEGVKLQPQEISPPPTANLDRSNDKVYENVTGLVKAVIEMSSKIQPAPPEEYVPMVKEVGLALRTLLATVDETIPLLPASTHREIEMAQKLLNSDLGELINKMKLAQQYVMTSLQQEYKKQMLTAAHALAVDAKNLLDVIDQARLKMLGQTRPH

By IC50 is commonly meant the midpoint of a concentration-inhibition curve. `CNC(=O)c1ccccc1Nc1cc(Nc2ccc(N3CCOCC3)cc2OC)ncc1C(F)(F)F` [VS-4718] returned a half-maximal inhibitory concentration (IC50) in the test with RD of 1220 nM.

A word on the Emax: it is the maximal effect, on the per cent scale that the assay sets. With `Cc1ncsc1-c1ccc(CNC(=O)[C@@H]2C[C@@H](O)CN2C(=O)[C@@H](NC(=O)CCOCCOc2ccc(Nc3ncc(C(F)(F)F)c(NCc4cccc(N(C)S(C)(=O)=O)c4)n3)cc2)C(C)(C)C)cc1`, in test [1], the Emax turned out to be 99%.

On to `CC1=CC[C@@]2(O)[C@H](CC[C@]2(C)O)C(C)(C)[C@@H]1CC[C@H]1[C@]2(C)CC[C@H](OC(=O)c3ccc(Cl)c(Cl)c3)C(C)(C)O[C@H]2CC[C@@]1(C)O`, for which the concentration for half-maximal inhibition (IC50) was 7500 nM in the test on MDA-MB-231, 20100 nM in the test with BT-474, 15200 nM in the test on MCF7 and 25100 nM with T47D.

On to `CS(=O)(=O)c1cccc(CNc2nc(Nc3ccc4c(c3)CC(=O)N4)ncc2C(F)(F)F)c1`, for which the IC50 was 4 nM against Focal adhesion kinase 1 [2] and 1000 nM in test [3]. For the same molecule, in the test on OVCAR-3, the Activity was found to be 94%.

As to `CONC(=O)c1ccccc1Nc1cc(Nc2cc(C)nn2C(C)C)ncc1Cl` [GSK-2256098], the results for the IC50 at Focal adhesion kinase 1 [4], at Focal adhesion kinase 1 [5] and on Focal adhesion kinase 1 [6] were 12 nM, 15 nM and 8.5 nM, respectively.

The values are drawn from ChEMBL document CHEMBL4813912, “Progress in the Development of Small Molecular Inhibitors of Focal Adhesion Kinase (FAK)” (J Med Chem, 2020).
